# How the values were obtained:
# Tph2 = target: T1, Tph2 (Homo sapiens, UniProt Q8IWU9); details: in vitro; cited from earlier work
# T1 sequence (Q8IWU9 1-490): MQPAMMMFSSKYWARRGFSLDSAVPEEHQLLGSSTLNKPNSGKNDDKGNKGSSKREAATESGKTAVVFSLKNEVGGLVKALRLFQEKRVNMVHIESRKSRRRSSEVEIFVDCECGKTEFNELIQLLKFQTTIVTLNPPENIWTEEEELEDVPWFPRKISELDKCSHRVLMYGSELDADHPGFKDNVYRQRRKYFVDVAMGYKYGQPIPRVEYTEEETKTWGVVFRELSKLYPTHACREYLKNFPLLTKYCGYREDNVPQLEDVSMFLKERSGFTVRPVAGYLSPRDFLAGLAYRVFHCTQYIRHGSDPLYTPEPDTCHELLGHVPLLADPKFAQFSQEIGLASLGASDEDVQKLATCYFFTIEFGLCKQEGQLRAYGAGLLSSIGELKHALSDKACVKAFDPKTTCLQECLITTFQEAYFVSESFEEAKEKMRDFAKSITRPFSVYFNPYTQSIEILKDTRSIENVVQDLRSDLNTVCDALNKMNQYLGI
# [1] = tested on: WEHI/3B myelomonocytic leukemia cell line; test: WEHI/3B murine model of AML, tumor burden at tissue level (Example 12); type: in vivo, mice
# Description: WEHI/3B, a macrophage-like myelomonocytic leukemia cell line established from inbred BALB/c mice, was used. BALB/cJ mice were inoculated with 1×10^6 Wehi-3 cells.
# Mice were sacrificed at pre-determined time points as specified before or upon signs of illness. Each animal was weighed before blood was sampled, and visually examined for tumor development. Spleens were isolated and weighed. Spleens and tissue samples from liver were fixed in 10% neutral formalin solution for 48 hours. Osseous samples (thoracic spine, sternum, pelvis, and stifle joint) were decalcified in Decalcifier System I (Leica Microsystems, Inc.) for 48 h after fixation. All tissues were processed by routine methods and embedded in paraffin Sections of 4 or 5 μm were stained with hematoxylin and eosin (H&E) according to standard procedures.
# Histomorphometric analyses were performed on vertebral column specimens collected from 2 months old mice using undecalcified sections using the osteomeasure analysis system (Osteometrics). Lumbar vertebrae were dissected, fixed for 24 hours in 10% formalin, dehydrated in graded ethanol series, and embedded in methyl methacrylate resin according to standard protocols (Chappard et al. (1987); Parfitt et al. (1987)).
# Bone formation rate (BFR) was analyzed by the calcein double-labeling method. Calcein (Sigma) was dissolved in calcein buffer (0.15 M NaCl, 2% NaHCO3) and administered by an intraperitoneal injection of 25 μg/g body weight, 6 days and 2 days before sacrificing the animals. In experiments evaluating survival rates of animals, bone formation rate was not calculated due to the unknown time of death. Unstained 4-μm sections were used for BFR measurements.
# For the analysis of parameters of osteoblast and osteoclast, 4-μm sections were stained with toluidine blue and tartrate-resistant acid phosphatase (TRAP), respectively. Type I collagen content and bone volume over trabecular volume (BV/TV) were analyzed using 7-μm sections by Von Gieson and Von Kossa staining […] respectively in undecalcified sections. Images were taken using a 10× objective on a Leica microscope outfitted with camera. Six to ten animals were analyzed for each group.
# Total RNA was isolated from tissues or cultured cells using Trizol, according to the manufacturer's protocol (Invitrogen). Total RNA (2 μg) was treated with DNAse I (Invitrogen), and reverse transcribed at 42° C. with SuperScript II (Invitrogen). The expression of all the genes was measured by real-time quantitative PCR with the SYBR Green Master Mix (Bio-Rad) using β actin or 18s as endogenous control.
# BALB/cJ mice purchased from Jackson Laboratory and injected with WEHI/3B, as described in Example 2, were used.
# Mice were treated as described in Example 9 and classified as: • Mice with no leukemia treated with a vehicle, i.e., non-leukemic-vehicle-treated (“WT”); • Mice with no leukemia treated with LP-533401, i.e., non-leukemic-LP-533401-treated (“NL-LP”); • Mice with leukemia treated with a vehicle, i.e., leukemic-vehicle-treated (“Leuk-veh”); and • Mice with leukemia treated with LP-533401, i.e., leukemic-LP 533410-treated (“Leuk-LP”).
# All mice were sacrificed after 2 weeks for the following assessments: • Serum serotonin levels as measured in Example 9; • Body weight as described in Example 2 • Spleen weight as described in Example 2; • Histological analysis of the femur, spleen and liver as described in Example 2; • Trabecular Bone Volume (Bv/TV) as described in Example 3; • and • Gene Expression analysis by PCR as described in Example 3. Results
# [2] = among 14 mice treated (WEHI/3B)
smiles,measurement,setting,value
Nc1nc(OC(c2ccc(-c3cccc(F)c3)cc2)C(F)(F)F)cc(-c2ccc(C[C@H](N)C(=O)O)cc2)n1 (stereo partly shown) [LP-533401],inhibition of Tph2 relative to Tph1,Tph2,inhibits Tph2 as effectively as Tph1
same,anemia observed in leukemic mice,[1]; WEHI/3B,inhibited
same,leukemia infiltration in the liver and spleen,[1]; WEHI/3B,limited leukemia infiltration in the liver and spleen
same,"leukemia-caused decrease in trabecular bone volume, osteoblast numbers and bone formation rate",[1]; WEHI/3B,prevented the decrease
same,leukemic mice in which megakaryocyte numbers returned to normal,[1]; WEHI/3B,70%
same,leukemic mice with normal myeloid:erythroid ratio,[1]; WEHI/3B,50%
same,number of leukemia blasts (histology),[1]; WEHI/3B,reduced number of leukemia blasts
same,osteoclast numbers,[1]; WEHI/3B,not affected
same,mice with less than 5% marrow blasts,[1]; [2],71%
same,number of mice with less than 5% marrow blasts,[1]; [2],10
same,"expression of osteoblast differentiating genes (osteocalcin, osterix, Runx2, alkaline phosphatase, collagen 1a1)","[1]; femur of leukemic mice (WEHI/3B), PCR",normalize the expression
same,cyclin D1 and D2 expression in bone (osteoblast proliferation),[1]; leukemic mice (WEHI/3B),increase in cyclin D1 and D2 expression
same,enlargement of the spleen (spleen weight),[1]; leukemic mice (WEHI/3B),alleviated
same,splenic red pulp,[1]; leukemic mice (WEHI/3B),normal
same,animals with a blast percentage of 20% or more in the bone marrow,"[1]; leukemic mice (WEHI/3B), 2 weeks",28%
same,body weight,[1]; leukemic vs non-leukemic animals (WEHI/3B),weight loss was not observed
